# Experimental data published in US10844051B2, “Substituted oxazoles for the treatment of cancer” (THE ROYAL INSTITUTION FOR THE ADCANCEMENT OF …, priority 2015, dated 2020).
# Legend:
# Format in all cases: cell-based
# [1] = target: T1, human STING (hSTING) (Homo sapiens, UniProt Q86WV6); assay: hSTING ISRE-luc reporter assay in 293T cells; details: 24 hours
# T1 construct: expressed in transfected cells; host or cells: 293T
# Method: ISRE-luc (reporter), pRL-TK (internal control) and hSTING-expressing plasmids were transiently transfected into 293T cells. Cells were exposed to DMSO vehicle control or compounds for 24 hours. Experiments were done in triplicate.
# [2] = target: T2, mouse STING (mSTING) (Mus musculus, UniProt Q3TBT3); assay: mSTING ISRE-luc reporter assay in 293T cells; details: 24 hours
# T2 construct: expressed in transfected cells; host or cells: 293T
# T2 sequence (Q3TBT3 1-378): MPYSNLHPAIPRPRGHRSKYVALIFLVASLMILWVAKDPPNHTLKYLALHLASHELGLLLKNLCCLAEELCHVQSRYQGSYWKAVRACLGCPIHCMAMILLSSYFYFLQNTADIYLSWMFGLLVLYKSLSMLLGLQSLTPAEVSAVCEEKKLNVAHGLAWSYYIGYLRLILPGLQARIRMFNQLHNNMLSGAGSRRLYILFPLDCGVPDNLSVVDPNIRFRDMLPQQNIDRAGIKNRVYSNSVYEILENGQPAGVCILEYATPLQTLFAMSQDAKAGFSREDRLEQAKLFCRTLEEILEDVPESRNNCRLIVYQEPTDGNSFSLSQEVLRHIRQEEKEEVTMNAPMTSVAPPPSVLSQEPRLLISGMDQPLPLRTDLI
# Method: ISRE-luc (reporter), pRL-TK (internal control) and mSTING-expressing plasmids were transiently transfected into 293T cells. Cells were exposed to DMSO vehicle control or compounds for 24 hours. Experiments were done in triplicate.
# [3] = target: T3, ETV1 (Homo sapiens, UniProt P50549); assay: ETV1-dependent reporter assay in HEK293 cells; details: 48 hours
# T3 construct: expressed in transfected cells; host or cells: HEK293
# T3 sequence (P50549 1-477): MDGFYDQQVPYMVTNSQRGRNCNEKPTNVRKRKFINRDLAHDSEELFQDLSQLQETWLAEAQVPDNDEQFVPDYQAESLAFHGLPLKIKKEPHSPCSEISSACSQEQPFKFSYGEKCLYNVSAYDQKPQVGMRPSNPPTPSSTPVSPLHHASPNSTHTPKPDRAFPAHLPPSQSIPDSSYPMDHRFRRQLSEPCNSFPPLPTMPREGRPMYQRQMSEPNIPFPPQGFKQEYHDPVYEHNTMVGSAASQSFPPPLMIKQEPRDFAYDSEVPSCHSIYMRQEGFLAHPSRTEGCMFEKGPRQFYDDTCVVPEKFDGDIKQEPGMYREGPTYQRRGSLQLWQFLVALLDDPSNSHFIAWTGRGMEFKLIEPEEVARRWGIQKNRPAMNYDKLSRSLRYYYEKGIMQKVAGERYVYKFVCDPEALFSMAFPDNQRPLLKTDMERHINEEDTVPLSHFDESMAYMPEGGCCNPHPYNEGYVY
# Method: (§1) HEK293 cells were transiently transfected with empty vector (for the NT) or ERG-expressing plasmid as well as pRL-TK (internal control) and PUx3-Luc reporter. Cells were then exposed to DMSO vehicle or compounds at designated doses for 48 hours. Experiments were done in triplicate.
# Experiments were done as described above in FIG. 1.1a) except that ERG plasmid was replaced by ETV1 plasmid.
# [4] = target: T4, human GATA2 (Homo sapiens, UniProt P23769); assay: GATA2-dependent reporter assay in IHH cells; details: GATA-Luc reporter, 48 h
# T4 construct: expressed in transfected cells; host or cells: IHH
# T4 sequence (P23769 1-480): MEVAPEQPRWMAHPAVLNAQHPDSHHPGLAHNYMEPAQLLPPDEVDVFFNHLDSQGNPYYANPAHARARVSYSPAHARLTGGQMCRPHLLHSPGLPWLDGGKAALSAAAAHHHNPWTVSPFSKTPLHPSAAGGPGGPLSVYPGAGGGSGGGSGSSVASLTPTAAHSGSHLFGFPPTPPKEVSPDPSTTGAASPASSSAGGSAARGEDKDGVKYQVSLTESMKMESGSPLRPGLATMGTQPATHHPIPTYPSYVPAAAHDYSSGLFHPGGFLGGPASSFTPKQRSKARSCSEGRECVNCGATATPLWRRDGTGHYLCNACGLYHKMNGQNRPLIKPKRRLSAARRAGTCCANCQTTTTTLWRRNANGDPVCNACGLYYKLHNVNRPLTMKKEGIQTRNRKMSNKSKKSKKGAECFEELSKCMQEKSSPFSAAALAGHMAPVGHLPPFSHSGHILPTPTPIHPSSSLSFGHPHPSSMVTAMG
# Method: K7174 is a known GATA2 inhibitor. The IHH cells were transiently transfected with empty vector (for the NT) or human GATA2-expressing plasmid as well as pRL-TK (internal control) and GATA-Luc reporter plasmids. Cells were exposed to DMSO vehicle or compounds for 48 h. Experiments were in triplicate.
# [5] = target: T5, human GATA3 (Homo sapiens, UniProt P23771); assay: GATA3-dependent reporter assay in IHH cells; details: 48 hours, 10 μM
# T5 construct: expressed in transfected cells; host or cells: IHH
# Method: The IHH cells were transiently transfected with empty vector (for the NT) or human GATA3-expressing plasmid as well as pRL-TK (internal control) and GATA-Luc reporter plasmids. Cells were exposed to DMSO vehicle or compounds for 48 hours. Experiments were done in triplicate.
# [6] = target: T6, ERG (Homo sapiens, UniProt P11308); assay: ERG-dependent reporter assay in HEK293 cells; parameters: expressed in transfected cells; host or cells: HEK293; details: PUx3-Luc reporter, 48 hours, designated doses
# T6 sequence (P11308 1-486 isoform P11308-3): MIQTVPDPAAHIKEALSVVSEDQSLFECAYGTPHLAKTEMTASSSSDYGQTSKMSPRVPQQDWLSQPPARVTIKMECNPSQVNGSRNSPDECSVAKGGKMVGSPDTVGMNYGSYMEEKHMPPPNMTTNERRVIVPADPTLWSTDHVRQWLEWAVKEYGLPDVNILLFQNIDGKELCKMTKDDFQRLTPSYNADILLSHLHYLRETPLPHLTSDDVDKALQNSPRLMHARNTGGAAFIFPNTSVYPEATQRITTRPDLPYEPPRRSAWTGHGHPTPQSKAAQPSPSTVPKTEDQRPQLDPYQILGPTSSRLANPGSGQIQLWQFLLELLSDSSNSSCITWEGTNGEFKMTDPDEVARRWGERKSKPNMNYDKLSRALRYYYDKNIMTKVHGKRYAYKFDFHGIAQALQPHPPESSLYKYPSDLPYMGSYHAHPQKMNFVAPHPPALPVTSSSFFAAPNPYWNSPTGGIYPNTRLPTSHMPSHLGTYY
# Method: as §1
# [7] = test system: interferon signaling pathway in THP-1 cells; assay: Western blot, interferon signaling in THP-1 cells; details: 16 hours
# Method: THP1 cells were treated for 16 hours with the indicated concentration (μM) of compounds or DMSO vehicle control. Whole-cell extracts were prepared and subjected to Western blot analysis with the antibodies as indicated.
# [8] = test system: hSTING and/or mSTING; assay: hSTING- or mSTING-dependent ISRE-luc reporter assay in 293T cells; details: 24 hours
# Method: ISRE-luc (reporter), pRL-TK (internal control) and hSTING- or mSTING-expressing plasmids were transiently transfected into 293T cells. Cells were exposed to DMSO vehicle control or compounds for 24 hours. Experiments were done in triplicate.
# [9] = test system: phosphorylation of ERK in Panc 10.05 cells; assay: Western blot, phosphorylation of ERK in Panc 10.05 cells; details: 10 μM, 24 hours
# Method: C-PARP, cleaved PARP. Panc10.05 cells were exposed to DMSO vehicle or compounds at designated doses for 24 hours.
# Panc10.05 cells were exposed to DMSO vehicle or compounds at designated doses for 24 hours.
# [10] = test system: phosphorylation of ERK in HCT-116 cells; assay: Western blot, phosphorylation of ERK in HCT-116 cells; details: 10 μM, 24 hours
# Method: HCT-116 cells were exposed to DMSO vehicle or compounds at designated doses for 24 hours.
# T1 sequence (Q86WV6 whole entry H232R): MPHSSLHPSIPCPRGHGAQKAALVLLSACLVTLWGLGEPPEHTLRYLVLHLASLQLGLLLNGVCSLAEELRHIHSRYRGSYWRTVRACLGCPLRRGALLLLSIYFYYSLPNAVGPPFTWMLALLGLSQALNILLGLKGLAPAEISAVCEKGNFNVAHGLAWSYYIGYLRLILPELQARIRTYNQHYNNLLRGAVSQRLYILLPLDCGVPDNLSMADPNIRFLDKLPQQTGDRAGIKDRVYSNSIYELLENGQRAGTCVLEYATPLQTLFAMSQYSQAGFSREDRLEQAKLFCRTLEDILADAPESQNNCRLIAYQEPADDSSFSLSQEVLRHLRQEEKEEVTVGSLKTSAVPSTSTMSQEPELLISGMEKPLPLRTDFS
# T5 sequence (P23771 whole entry): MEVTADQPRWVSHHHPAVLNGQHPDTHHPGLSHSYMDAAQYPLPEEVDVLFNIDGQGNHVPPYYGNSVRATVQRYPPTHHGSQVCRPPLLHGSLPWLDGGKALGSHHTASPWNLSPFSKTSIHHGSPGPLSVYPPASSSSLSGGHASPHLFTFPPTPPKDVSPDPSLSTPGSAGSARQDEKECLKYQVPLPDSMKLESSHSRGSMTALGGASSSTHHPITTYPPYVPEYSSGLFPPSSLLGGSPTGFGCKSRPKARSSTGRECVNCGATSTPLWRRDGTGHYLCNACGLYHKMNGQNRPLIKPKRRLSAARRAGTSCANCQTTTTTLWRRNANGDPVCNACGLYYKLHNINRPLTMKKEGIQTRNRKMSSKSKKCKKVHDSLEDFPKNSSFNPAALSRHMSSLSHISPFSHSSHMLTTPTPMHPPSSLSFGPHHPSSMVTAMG
smiles,measurement,setting,value
COc1cccc(-c2nc(CCCc3c[nH]c4ccccc34)oc2-c2cccc(OC)c2)c1 [Compound 640],activation of hSTING in ISRE-luc reporter assay,[1],activate human STING (hSTING)
same,activation of mSTING in ISRE-luc reporter assay,[2],activate mouse STING (mSTING)
FC(F)(F)c1ccc(-c2nc(CCCc3c[nH]c4ccccc34)oc2-c2ccc(C(F)(F)F)cc2)cc1 [Compound 672],activation of hSTING in ISRE-luc reporter assay,[1],activate human STING (hSTING)
same,activation of mSTING in ISRE-luc reporter assay,[2],activate mouse STING (mSTING)
Oc1cccc(-c2nc(CCc3c[nH]c4ccccc34)oc2-c2cccc(O)c2)c1 [Compound 675],ETV1 inhibition in ETV1-dependent reporter assay,[3],ETV1 inhibitors
same,GATA2 inhibition in GATA2-dependent reporter assay,[4],GATA2 inhibitors
same,activity against GATA3 in GATA3-dependent reporter assay,[5],inactive against GATA3
same,ERG inhibition in ERG-dependent reporter assay,[6],ERG inhibitors
FC(F)(F)c1cccc(-c2nc(CCCc3c[nH]c4ccccc34)oc2-c2cccc(C(F)(F)F)c2)c1 [Compound 681],activation of hSTING in ISRE-luc reporter assay,[1],activate human STING (hSTING)
same,activation of mSTING in ISRE-luc reporter assay,[2],activate mouse STING (mSTING)
Fc1cccc(-c2nc(CCc3c[nH]c4ccccc34)oc2-c2cccc(F)c2)c1 [Compound 761],activation of hSTING in ISRE-luc reporter assay,[1],activate human STING (hSTING)
same,activation of mSTING in ISRE-luc reporter assay,[2],activate mouse STING (mSTING)
same,activation of interferon signaling pathway (Western blot),[7],activate interferon signaling pathway
Fc1cccc(-c2oc(CCCc3c[nH]c4ccccc34)nc2-c2ccco2)c1 [Compound 834],GATA2 inhibition in GATA2-dependent reporter assay,[4],GATA2 inhibitors
same,activation of hSTING in ISRE-luc reporter assay,[1],activate hSTING
same,activation of interferon signaling pathway (Western blot),[7],activate interferon signaling pathway
COc1cccc(-c2oc(CCCc3c[nH]c4ccccc34)nc2-c2ccco2)c1 [Compound 840],GATA2 inhibition in GATA2-dependent reporter assay,[4],GATA2 inhibitors
same,activation of hSTING in ISRE-luc reporter assay,[1],activate hSTING
same,activation of interferon signaling pathway (Western blot),[7],activate interferon signaling pathway
Fc1cccc(-c2nc(CNCCc3c[nH]c4ccccc34)[nH]c2-c2cccc(F)c2)c1 [Compound 874],activation of hSTING and/or mSTING in ISRE-luc reporter assay,[8],activate hSTING and/or mSTING
same,activation of hSTING and/or mSTING in ISRE-luc reporter assay,[8]; 10 μM,activate hSTING and/or mSting
same,activation of interferon signaling pathway (Western blot),[7],activate interferon signaling pathway
Fc1cccc(-c2nc(CN3CCC(c4noc5ccccc45)CC3)[nH]c2-c2cccc(F)c2)c1 [Compound 1100],activation of hSTING and/or mSTING in ISRE-luc reporter assay,[8],activate hSTING and/or mSTING
same,suppression of phosphorylation of ERK (Western blot),[9],potently suppressed phosphorylation of ERK
c1ccc(CN2CCN(Cc3nc(-c4ccccc4)c(-c4ccccc4)o3)CC2)cc1 [Compound 1176],activation of hSTING and/or mSTING in ISRE-luc reporter assay,[8],activate hSTING and/or mSTING
same,activation of hSTING and/or mSTING in ISRE-luc reporter assay,[8]; 10 μM,activate hSTING and/or mSTING
same,activation of interferon signaling pathway (Western blot),[7],activate interferon signaling pathway
N#CCN(CCc1c[nH]c2ccccc12)Cc1nc(-c2ccccc2)c(-c2ccccc2)[nH]1 [Compound 1187],suppression of phosphorylation of ERK (Western blot),[9],potently suppressed phosphorylation of ERK
same,suppression of phosphorylation of ERK (Western blot),[10],potently suppressed phosphorylation of ERK
COc1ccc(CC/C(=C/C(=O)N2CCC(O)(c3cccc(C(F)(F)F)c3)CC2)c2ccccc2)cc1F [Compound 1200],suppression of phosphorylation of ERK (Western blot),[9],potently suppressed phosphorylation of ERK
OC1(c2cccc(C(F)(F)F)c2)CCN(Cc2nc(-c3cccc(F)c3)c(-c3cccc(F)c3)[nH]2)CC1 [Compound 1209],suppression of phosphorylation of ERK (Western blot),[10],potently suppressed phosphorylation of ERK
COc1cccc(N2CCN(C(=O)C/C(=C/Cc3ccc(OC)c(F)c3)c3ccccc3)CC2)c1 [Compound 1237],suppression of phosphorylation of ERK (Western blot),[9],potently suppressed phosphorylation of ERK
same,suppression of phosphorylation of ERK (Western blot),[10],potently suppressed phosphorylation of ERK
COc1ccc(CC/C(=C/C(=O)N2CCC(O)(c3ccccc3)CC2)c2ccc(Cl)cc2)cc1F [Compound 1306],suppression of phosphorylation of ERK (Western blot),[10],potently suppressed phosphorylation of ERK
